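Assay format: 96-well plates, 48-hour exposure. Abbreviation: GI50, concentration required for 50% inhibition of growth.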 Calls of active or inactive are those of the source. Cut-off read from the data, not from the text of the source: active = GI50 up to about 1.1 µM and inactive = higher.
Columns and labels:
Assay in all cases: NCI anticancer screen, dose series, 48 h
A549 = tested on: A549
HCC 2998 = tested on: HCC 2998
HOP-92 = tested on: HOP-92
PC-3 = tested on: PC-3
OVCAR-5 = tested on: OVCAR-5
UACC-257 = tested on: UACC-257
HCT-116 = tested on: HCT-116
CAKI-1 = tested on: CAKI-1
MCF7 = tested on: MCF7
CCRF-CEM = tested on: CCRF-CEM
DU-145 = tested on: DU-145
SNB-75 = tested on: SNB-75
SN12C = tested on: SN12C
COLO 205 = tested on: COLO 205
SF-268 = tested on: SF-268
A498 = tested on: A498
OVCAR-4 = tested on: OVCAR-4
NCI-H522 = tested on: NCI-H522
SNB-19 = tested on: SNB-19
MDA-MB-435 = tested on: MDA-MB-435

Measured: GI50

Cc1cc2c(SCc3ccccc3Cl)nc(N)nc2nc1C
inactive: A549 > 100 µM | HCC 2998 > 100 µM | HOP-92 62.4 µM | PC-3 > 100 µM | OVCAR-5 > 100 µM | UACC-257 > 100 µM | HCT-116 > 100 µM | CAKI-1 > 100 µM | MCF7 > 100 µM | CCRF-CEM > 100 µM | DU-145 > 100 µM | SNB-75 > 100 µM | SN12C > 100 µM | COLO 205 > 100 µM | SF-268 65.5 µM | A498 > 100 µM | OVCAR-4 > 100 µM | NCI-H522 21.4 µM | SNB-19 > 100 µM | MDA-MB-435 > 100 µM

Nc1nc(-c2cccs2)cs1
inactive: A549 58.6 µM | HCC 2998 57.9 µM | HOP-92 26.4 µM | PC-3 67.9 µM | OVCAR-5 > 100 µM | UACC-257 > 100 µM | HCT-116 56.8 µM | CAKI-1 > 100 µM | MCF7 91.8 µM | CCRF-CEM 29 µM | DU-145 > 100 µM | SNB-75 > 100 µM | SN12C > 100 µM | COLO 205 88.1 µM | SF-268 > 100 µM | A498 > 100 µM | OVCAR-4 > 100 µM | NCI-H522 34.9 µM | SNB-19 > 100 µM | MDA-MB-435 79.8 µM

N#Cc1c2c(c(Nc3ccc(F)cc3)n3c1nc1ccccc13)CCC2
inactive: A549 5.93 µM | HCC 2998 18.4 µM | HOP-92 6.37 µM | PC-3 5.14 µM | OVCAR-5 5.02 µM | UACC-257 7.96 µM | HCT-116 1.76 µM | CAKI-1 1.68 µM | MCF7 3.32 µM | DU-145 3.61 µM | SNB-75 6.18 µM | SN12C 2.1 µM | COLO 205 6.31 µM | SF-268 3.55 µM | A498 12.9 µM | OVCAR-4 10 µM | NCI-H522 2.2 µM | SNB-19 8.61 µM | MDA-MB-435 3.25 µM
active: CCRF-CEM 0.791 µM

COc1ccc(/C=C/C(=O)Oc2cc(O)cc(O)c2)cc1
inactive: A549 34.8 µM | HCC 2998 33 µM | HOP-92 93.1 µM | PC-3 43.6 µM | OVCAR-5 > 100 µM | UACC-257 > 100 µM | HCT-116 14.3 µM | CAKI-1 17.2 µM | MCF7 19.5 µM | CCRF-CEM 11.5 µM | DU-145 56.6 µM | SNB-75 38.1 µM | SN12C 36.4 µM | COLO 205 57.9 µM | SF-268 26.2 µM | A498 > 100 µM | OVCAR-4 85.5 µM | NCI-H522 24.4 µM | SNB-19 > 100 µM | MDA-MB-435 61.9 µM

Cc1c(OCc2cccc3ccccc23)ccc2c(=O)cc(SCCN3CCOCC3)oc12
inactive: A549 > 100 µM | HCC 2998 > 100 µM | HOP-92 > 100 µM | PC-3 > 100 µM | OVCAR-5 78.2 µM | UACC-257 > 100 µM | HCT-116 > 100 µM | CAKI-1 > 100 µM | MCF7 > 100 µM | CCRF-CEM > 100 µM | DU-145 > 100 µM | SNB-75 > 100 µM | SN12C > 100 µM | COLO 205 > 100 µM | SF-268 > 100 µM | A498 > 100 µM | OVCAR-4 38.5 µM | NCI-H522 90.6 µM | SNB-19 > 100 µM | MDA-MB-435 > 100 µM

Cc1cn2c(C)csc2c1P(=O)(OC(C)C)OC(C)C
inactive: A549 > 100 µM | HCC 2998 > 100 µM | HOP-92 > 100 µM | PC-3 > 100 µM | OVCAR-5 > 100 µM | UACC-257 > 100 µM | HCT-116 > 100 µM | CAKI-1 > 100 µM | MCF7 > 100 µM | CCRF-CEM > 100 µM | DU-145 > 100 µM | SNB-75 > 100 µM | SN12C > 100 µM | COLO 205 > 100 µM | SF-268 > 100 µM | A498 > 100 µM | OVCAR-4 > 100 µM | NCI-H522 > 100 µM | SNB-19 > 100 µM | MDA-MB-435 > 100 µM

Cn1c(=O)c2c(nc(Nc3ccc(Cl)cc3)n3c(=O)n(-c4ccccc4)c(=O)n23)n(C)c1=O
inactive: A549 > 100 µM | HCC 2998 > 100 µM | HOP-92 > 100 µM | PC-3 > 100 µM | OVCAR-5 > 100 µM | UACC-257 > 100 µM | HCT-116 > 100 µM | CAKI-1 > 100 µM | MCF7 > 100 µM | CCRF-CEM > 100 µM | DU-145 > 100 µM | SNB-75 15.5 µM | SN12C > 100 µM | COLO 205 > 100 µM | SF-268 > 100 µM | A498 > 100 µM | OVCAR-4 > 100 µM | NCI-H522 > 100 µM | SNB-19 > 100 µM | MDA-MB-435 > 100 µM

CCC(=O)NI1OC(=O)c2ccccc21
inactive: A549 > 100 µM | HCC 2998 > 100 µM | HOP-92 > 100 µM | PC-3 > 100 µM | OVCAR-5 > 100 µM | UACC-257 > 100 µM | HCT-116 > 100 µM | CAKI-1 21.6 µM | MCF7 > 100 µM | CCRF-CEM 40.9 µM | DU-145 > 100 µM | SNB-75 > 100 µM | SN12C > 100 µM | COLO 205 > 100 µM | SF-268 > 100 µM | A498 > 100 µM | OVCAR-4 > 100 µM | NCI-H522 15.9 µM | MDA-MB-435 > 100 µM

COc1cc(/C=C2\CCC(C)C3C2=NN(C(C)=O)C3c2cc(OC)c(OC)c(OC)c2)cc(OC)c1OC (centres undefined)
inactive: A549 > 100 µM | HCC 2998 > 100 µM | HOP-92 > 100 µM | PC-3 > 100 µM | OVCAR-5 10.2 µM | UACC-257 > 59.8 µM | HCT-116 > 100 µM | CAKI-1 14.2 µM | MCF7 > 77.6 µM | CCRF-CEM > 100 µM | DU-145 > 100 µM | SNB-75 15.8 µM | SN12C > 100 µM | COLO 205 > 100 µM | SF-268 > 85.1 µM | A498 > 100 µM | OVCAR-4 > 100 µM | NCI-H522 5.09 µM | SNB-19 > 100 µM | MDA-MB-435 > 100 µM

CNCCCNC(=S)Cn1cc(C)c(=O)[nH]c1=O
inactive: A549 > 29.9 µM | HCC 2998 > 52.6 µM | HOP-92 34.4 µM | PC-3 > 45.5 µM | OVCAR-5 > 69.5 µM | UACC-257 > 37.9 µM | HCT-116 > 33.8 µM | CAKI-1 24.9 µM | MCF7 > 31.8 µM | CCRF-CEM > 30.6 µM | DU-145 > 52.2 µM | SNB-75 > 54.2 µM | SN12C > 100 µM | COLO 205 > 48.8 µM | SF-268 > 39.1 µM | A498 > 55.6 µM | OVCAR-4 > 53.2 µM | NCI-H522 > 53.6 µM | SNB-19 > 91.2 µM | MDA-MB-435 > 26.1 µM

CCCSc1ccc2[nH]c(N3C(=O)/C(=C/c4ccccc4)N=C3c3ccccc3)cc2c1
inactive: A549 19.5 µM | HCC 2998 15.1 µM | HOP-92 > 50 µM | PC-3 23.7 µM | OVCAR-5 > 50 µM | UACC-257 17 µM | HCT-116 22.4 µM | CAKI-1 27.2 µM | MCF7 24.4 µM | CCRF-CEM 18.4 µM | DU-145 35.6 µM | SNB-75 40.6 µM | SN12C 30.9 µM | COLO 205 10.5 µM | SF-268 18.4 µM | A498 27 µM | OVCAR-4 30 µM | NCI-H522 12.1 µM | SNB-19 41.4 µM | MDA-MB-435 8.3 µM

c1ccc(-c2nc3ccccc3n3c(CN4CCCCC4)nnc23)cc1
inactive: A549 > 100 µM | HCC 2998 > 100 µM | HOP-92 31.2 µM | PC-3 > 100 µM | OVCAR-5 > 100 µM | UACC-257 > 100 µM | HCT-116 > 100 µM | CAKI-1 > 100 µM | MCF7 > 100 µM | CCRF-CEM > 100 µM | DU-145 > 100 µM | SNB-75 19.2 µM | SN12C > 100 µM | COLO 205 > 100 µM | SF-268 49.5 µM | A498 60 µM | OVCAR-4 > 100 µM | NCI-H522 > 100 µM | SNB-19 36.2 µM | MDA-MB-435 > 100 µM

O=C1/C(=C/c2ccc(O)c(O)c2)CC/C1=C\c1ccc(O)c(O)c1
inactive: A549 15.7 µM | HCC 2998 > 21.6 µM | HOP-92 4.17 µM | PC-3 11.8 µM | OVCAR-5 > 42.2 µM | UACC-257 20.8 µM | HCT-116 3.58 µM | CAKI-1 8.17 µM | MCF7 6.15 µM | CCRF-CEM 1.65 µM | DU-145 9.46 µM | SNB-75 6.7 µM | SN12C 7.29 µM | COLO 205 16.2 µM | SF-268 5.52 µM | A498 17 µM | OVCAR-4 5.33 µM | NCI-H522 2.01 µM | SNB-19 7.11 µM | MDA-MB-435 4.68 µM
